# Experimental data taken from patent publication US9993463B2, “Use of maleimide derivatives for preventing and treating cancer” (CENTOGENE AG, priority 2012, dated 2018).
# Legend:
# [1] = test system: bovine neuronal tubulin; test: VEC-DIC microscopy of tubulin polymerization; format: biochemical; details: tubulin 2 mg/ml, 37° C., 1 h, FIG. 5A, B
# Procedure: In order to evaluate interference with tubulin polymerisation bovine neuronal tubulin was used, diluted in BRB80 buffer (80 mM PIPES, pH 6.8; MgCl2 1 mM; EGTA 1 mM) at a concentration of 2 mg/ml. After addition of 0.5 mM GTP and 10% DMSO, initiating tubulin polymerisation, the solution samples were incubated at 37° C. in the presence of compound of example 6 (PDA-66). After 1 h the samples were analysed by using video enhanced contrast differential interference contrast (VEC-DIC) microscopy.
# [2] = test system: purified bovine brain tubulin; test: Tubulin polymerisation turbidity assay; format: biochemical; details: 1 μM, 340 nm, 37° C.; for shape of OD curve over time / effect on tubulin polymerization: 60 min, FIG. 5C, untreated control sigmoid
# Procedure: Purified bovine brain tubulin was used to measure tubulin-polymerisation by determining turbidity in tubulin samples incubated with compound of example 6 (PDA-66), paclitaxel or nocodazole (all 1 μM) and 0.6% DMSO in water as negative control. Optical density (OD) was measured after initiation of tubulin assembly at a wavelength of 340 nm continuously for 60 min in 1 min intervals at a temperature of 37° C. in a plate reader (Tecan, Mainz, Germany).
# [3] = test system: human T cell leukemia (Jurkat) cells; test: Cell proliferation assay (CASY, current exclusion), Jurkat; format: cell-based; details: 72 h
# Procedure: (§1) Human neural progenitor cells ReNcell VM (Millipore, Schwalbach, Germany) were cultured on laminin-coated culture-vessels. Culture medium consisted of DMEM/F12 supplemented with B27 media supplement, GlutaMax™, gentamycin and heparin sodium salt and growth factors EGF (epidermal growth factor) and bFGF (basic fibroblast growth factor). The human neuroblastoma cell line SH-SY5Y was obtained from the German Resource Centre for Biological Material DSMZ (Braunschweig, Germany). Cells were cultivated in DMEM, supplemented with 10% FBS, 1% Penicillin-Streptomycin, 4 mM L-Glutamine. The human T cell leukemia cell line Jurkat was obtained from the German Resource Centre for Biological Material DSMZ (Braunschweig, Germany). Cells were cultivated in RPMI 1640 medium, supplemented with 10% FBS, 1% Penicillin-Streptomycin. The murine melanoma cell line B16F10 was obtained from the American Type Culture Collection (ATCC, Manassas, USA), Cells were cultivated in DMEM/GM medium supplemented with 10% FBS, 1% Penicillin-Streptomycin. The mammary gland/breast carcinoma cell line MCF-7 was obtained from American Type Culture Collection (ATCC, Manassas, USA) and cultivated according to standard proceedings in Eagle's Minimum Essential Medium (EMEM). The colon carcinoma cell line SW480 was obtained from American Type Culture Collection (ATCC, Manassas, USA) and cultivated according to standard proceedings in Leibovitz's L15 Medium. […]
# (§2) Cell proliferation and vitality were measured with a CASY Model TT (Roche, Mannheim, Germany) by electrical current exclusion method. […]
# (§3) 5.2 Furthermore cancer cells were treated with compound of example 2.6 (PDA-66) with a concentration of 3 μM for 72 h and cell number was evaluated using the current exclusion method as described above.
# (§4) In a further experiment further cancer cells were treated with compound of example 2.6 (PDA-66) with a concentration of 3 μM or 10 μM for 72 h and cell number was evaluated using the current exclusion method as described above.
# [4] = test system: apoptotic cells (AnnexinV/PI); test: AnnexinV/PI apoptosis detection (FACS); format: cell-based; details: FIG. 3
# Procedure: To determine the amount of apoptotic and necrotic cells a FITC AnnexinV Apoptosis Detection Kit I was used. For FACS analysis, cells were trypsinised and centrifuged at 100×g at RT for 5 min and washed with PBS without Ca2^+ and Mg^2+. Annexin V and propidium iodide (PI) were added accordingly to the manufacture's instructions. After 15 min incubation at room temperature on a shaker in the dark, the measurement was done by using FACSCalibur (Becton Dickinson, San Jose, USA) in combination with Cell Quest Pro software.
# [5] = test system: MCF-7 cells (mammary gland/breast carcinoma); test: Cell proliferation assay (CASY, current exclusion), MCF-7; format: cell-based; details: mamma carcinoma cells (printed MCF-1), 72 h
# Procedure: as §1, with “Penicillin-Streptomycin.” for “Penicillin-Streptomycin. The mammary gland/breast carcinoma cell line MCF-7 was obtained from American Type Culture Collection (ATCC, Manassas, USA) and cultivated according to standard proceedings in Eagle's Minimum Essential Medium (EMEM). The colon carcinoma cell line SW480 was obtained from American Type Culture Collection (ATCC, Manassas, USA) and cultivated according to standard proceedings in Leibovitz's L15 Medium.”
# as §2, §4
# [6] = test system: colon carcinoma cells (SW480); test: Cell proliferation assay (CASY, current exclusion), SW480; format: cell-based; details: 72 h
# Procedure: as §1, with “Penicillin-Streptomycin.” for “Penicillin-Streptomycin. The mammary gland/breast carcinoma cell line MCF-7 was obtained from American Type Culture Collection (ATCC, Manassas, USA) and cultivated according to standard proceedings in Eagle's Minimum Essential Medium (EMEM). The colon carcinoma cell line SW480 was obtained from American Type Culture Collection (ATCC, Manassas, USA) and cultivated according to standard proceedings in Leibovitz's L15 Medium.”
# as §2, §4
# [7] = test system: lung carcinoma cells (A 549); test: Cell proliferation assay (CASY, current exclusion), A549; format: cell-based; details: for proliferation relative to control: 72 h
# Procedure: as §1, with “Medium. The lung carcinoma cell line A549 was obtained from American Type Culture Collection (ATCC, Manassas, USA) and cultivated according to standard proceedings in F-12K Medium (Kaighn's Modification of Ham's F-12 Medium).” for “Medium.”
# as §2, §4
# [8] = test system: liver carcinoma cells (HepG2); test: Cell proliferation assay (CASY, current exclusion), HepG2; format: cell-based; details: 72 h
# Procedure: as §1, with “Penicillin-Streptomycin.” for “Penicillin-Streptomycin. The mammary gland/breast carcinoma cell line MCF-7 was obtained from American Type Culture Collection (ATCC, Manassas, USA) and cultivated according to standard proceedings in Eagle's Minimum Essential Medium (EMEM). The colon carcinoma cell line SW480 was obtained from American Type Culture Collection (ATCC, Manassas, USA) and cultivated according to standard proceedings in Leibovitz's L15 Medium.”
# as §2, §4
# [9] = test system: human neuroblastoma cells (SH5Y5); test: Cell proliferation assay (CASY, current exclusion), SH5Y5; format: cell-based; details: SH5Y5, 3 μM, 72 h, FIG. 2
# Procedure: as §1, with “Penicillin-Streptomycin.” for “Penicillin-Streptomycin. The mammary gland/breast carcinoma cell line MCF-7 was obtained from American Type Culture Collection (ATCC, Manassas, USA) and cultivated according to standard proceedings in Eagle's Minimum Essential Medium (EMEM). The colon carcinoma cell line SW480 was obtained from American Type Culture Collection (ATCC, Manassas, USA) and cultivated according to standard proceedings in Leibovitz's L15 Medium.”
# as §2, §3
# [10] = test system: human immortalized cells; test: Mitotic arrest in G2/M phase of cell cycle; format: cell-based; details: after 16 h (highest amount), control 17.4±2.3%
# Excerpt: As a measure the increase in cells with double DNA content was used, where at all points in time the amount of treated cells was higher in comparison to untreated cells.
# [11] = test system: human neuronal progenitor cells (hNPCs, ReNcell VM); test: Cell proliferation and vitality assay (CASY, current exclusion), hNPCs; format: cell-based; details: for proliferation relative to control: 72 h
# Procedure: (§5) Human neural progenitor cells ReNcell VM (Millipore, Schwalbach, Germany) were cultured on laminin-coated culture-vessels. Culture medium consisted of DMEM/F12 supplemented with B27 media supplement, GlutaMax™, gentamycin and heparin sodium salt and growth factors EGF (epidermal growth factor) and bFGF (basic fibroblast growth factor). The human neuroblastoma cell line SH-SY5Y was obtained from the German Resource Centre for Biological Material DSMZ (Braunschweig, Germany). Cells were cultivated in DMEM, supplemented with 10% FBS, 1% Penicillin-Streptomycin, 4 mM L-Glutamine. The human T cell leukemia cell line Jurkat was obtained from the German Resource Centre for Biological Material DSMZ (Braunschweig, Germany). Cells were cultivated in RPMI 1640 medium, supplemented with 10% FBS, 1% Penicillin-Streptomycin. The murine melanoma cell line B16F10 was obtained from the American Type Culture Collection (ATCC, Manassas, USA), Cells were cultivated in DMEM/GM medium supplemented with 10% FBS, 1% Penicillin-Streptomycin. The mammary gland/breast carcinoma cell line MCF-7 was obtained from American Type Culture Collection (ATCC, Manassas, USA) and cultivated according to standard proceedings in Eagle's Minimum Essential Medium (EMEM). The colon carcinoma cell line SW480 was obtained from American Type Culture Collection (ATCC, Manassas, USA) and cultivated according to standard proceedings in Leibovitz's L15 Medium. The lung carcinoma cell line A549 was obtained from American Type Culture Collection (ATCC, Manassas, USA) and cultivated according to standard proceedings in F-12K Medium (Kaighn's Modification of Ham's F-12 Medium). The liver carcinoma cell line Hep G2 was obtained from American Type Culture Collection (ATCC, Manassas, USA) and cultivated according to standard proceedings in Eagle's Minimum Essential Medium (EMEM).
# (§6) Cell proliferation and vitality were measured with a CASY Model TT (Roche, Mannheim, Germany) by electrical current exclusion method. Cells were seeded in defined numbers into 48-well-plates and proliferated for 24 h. Subsequently fresh medium was applied containing compounds or DMSO, in the following referred as control.
# 5.1 Cytotoxic effects were evaluated using human fetal cells immortalized by transfection with the oncogen v-myc (Donato et al., Differential development of neuronal physiological responsiveness in two human neural stem cell lines. BMC Neurosci.; 8, 2007), also referred to herein as human neuronal progenitor cells, hNPCs, or ReNcell VM, providing a sensitive screening system and cancer cells, namely SH5Y5, Jurkat and B16F10 cells. Cytotoxic effects were measured by comparison of cells numbers of DMSO treated cells (control) and cell numbers of cells treated with compound of above mentioned example 2.6 (PDA66). Cell proliferation and vitality was measured with a CASY Model TT (Roche, Mannheim, Germany) by electrical current exclusion method. Cells were seeded in defined numbers into 48-well-plates and proliferated for 24 h: Subsequently fresh medium was applied containing compound of example 6 (3 μM) (PDA-66) or DMSO, in the following referred as control. Cell number and cell vitality was measured after 72 h.
# [12] = test system: murine melanoma cells (B16F10); test: Cell proliferation assay (CASY, current exclusion), B16F10; format: cell-based
# Procedure: as §5, §6, §3, §4
compound,measurement,setting,value
"CC(=O)c1ccc(C2=C(c3c(C)[nH]c4ccccc34)C(=O)N(C)C2=O)cc1 [PDA-66, 3-(4-Acetylphenyl)-1-methyl-4-(2-methyl-1H-indol-3-yl)-1H-pyrrole-2,5-dione]",microtubule (MT) polymerization by VEC-DIC microscopy,[1],hindered the MT-polymerization
same,maximal OD after 60 min,[2],1.04 rel. units
same,shape of OD curve over time / effect on tubulin polymerization,[2],destabilized tubulin in a way comparable to nocodazole
same,proliferation relative to control,[3]; 3 μM,18.2±2.2%
same,cell numbers versus control,"[3]; 3 μM, FIG. 2",reduced or attenuated significantly
same,proliferation relative to control,[3]; 10 μM,31.9±5.9%
same,apoptotic cells (AnnexinV+/PI− and AnnexinV+/PI+),[4],increase of apoptotic cells
same,proliferation relative to control,[5]; 3 μM,43.0±2.8%
same,proliferation relative to control,[5]; 10 μM,38.3±11.8%
same,proliferation relative to control,"[6]; SW480, 3 μM",61.3±0.6%
same,proliferation relative to control,"[6]; SW480, 10 μM",56.6±6.6%
same,proliferation relative to control,"[7]; A 549, 3 μM",57.1±9.2%
same,proliferation relative to control,"[7]; A 549, 10 μM",65.7±8.0%
same,IC50,"[7]; Homo sapiens, A549 cells",8980 nM
same,proliferation relative to control,"[8]; HepG2, 3 μM",74.8±6.3%
same,proliferation relative to control,"[8]; HepG2, 10 μM",47.2±3.8%
same,cell numbers versus control,[9],reduced or attenuated significantly
same,amount of cells in G2/M phase of cell cycle,[10],68.9±10.3%
same,proliferation relative to control,[11]; 3 μM,3.6±1.2%
same,number of vital cells (vitality) versus control,"[11]; 3 μM, FIG. 1 right panel",significantly lower
same,proliferation of immortalized cells (cell number) versus control,"[11]; 3 μM, up to 72 h, FIG. 1 left panel",no proliferation
same,proliferation relative to control,[11]; 10 μM,0.9±0.2%
same,effect of concentration on proliferation of immortalized cells,[11]; FIG. 6,dose-dependent effect
same,IC50,"[11]; Homo sapiens, ReNcell VM",532 nM
same,proliferation relative to control,"[12]; B16F10, 3 μM, 72 h",7.2±1.3%
same,cell numbers versus control,"[12]; B16F10, 3 μM, 72 h, FIG. 2",reduced or attenuated significantly
same,proliferation relative to control,"[12]; B16F10, at 10 (unit not given), 72 h",8.3±2.6%
same,IC50,"[12]; Mus musculus, B16-F10, B16F10 cells",1070 nM
COC(=O)Nc1nc2ccc(C(=O)c3cccs3)cc2[nH]1 [nocodazole],maximal OD after 60 min,[2],1.01 rel. units
same,shape of OD curve over time / effect on tubulin polymerization,[2],nearly linear curve
CC(=O)O[C@H]1C(=O)[C@@]2(C)[C@H]([C@H](OC(=O)c3ccccc3)[C@]3(O)C[C@H](OC(=O)[C@H](O)[C@@H](NC(=O)c4ccccc4)c4ccccc4)C(C)=C1C3(C)C)[C@]1(OC(C)=O)CO[C@@H]1C[C@@H]2O [paclitaxel],maximal OD after 60 min,[2],1.18 rel. units
same,shape of OD curve over time / effect on tubulin polymerization,[2],comparable shape but with a steeper slope
